Experimental data from ChEMBL document CHEMBL2073778, “Identification of lactate as a driving force for prostanoid transport by prostaglandin transporter PGT” (Am J Physiol Renal Physiol, 2002).

Biological target: Solute carrier organic anion transporter family member 2A1 (Homo sapiens, UniProt Q92959)
Test: TP_TRANSPORTER: inhibition of PGE2 uptake in PGT-expressing HeLa cells
Format: functional, cell-based

SMILES | Ki
C[C@@H](O)C(=O)O [D-LACTIC ACID] | 48 mM
O=P(O)(O)OC[C@H]1O[C@@](O)(COP(=O)(O)O)[C@@H](O)[C@@H]1O [FRUCTOSE 1,6-DIPHOSPHATE] | 51 mM
O=C(OP(=O)(O)O)C(O)COP(=O)(O)O (configuration not stated) | 57 mM

Compounds with a lower Ki, results first:

Ki | SMILES
15 mM | O=C[C@H](O)COP(=O)(O)O
13 mM | C=C(OP(=O)(O)O)C(=O)O [PHOSPHOENOLPYRUVATE]
31 mM | O=P(O)(O)OC[C@H]1O[C@@H](O)[C@H](O)[C@@H](O)[C@@H]1O
26 mM | CC(=O)C(=O)O [PYRUVATE]
